Assay results reported in patent US10981906B2, “Substituted pyrrolopyridine JAK inhibitors and methods of making and using the same” (ACLARIS THERAPEUTICS, INC., priority 2017, dated 2021).

Legend:
JAK3 (a.a. 781-1124) = JAK3 (a.a. 781-1124) (Homo sapiens (Human), UniProt P52333); experiment: JAK3 enzyme activity assay (SRCtide phosphorylation, Caliper); type: biochemical; conditions: 2.5 nM JAK3, 1 μM SRCtide, 1 uM ATP, 40 minutes; read-out: JAK3 Inhibition IC50
Method in brief: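 2.5 nM JAK3 kinase domain with 1 μM FAM-SRCtide and 1 μM ATP in 20 mM HEPES pH 7.5, 10 mM MgCl2, 2% DMSO, 40 min at room temperature, EDTA stop. Phospho/unphospho peptide separated by mobility shift; 11-point 3-fold series in duplicate, 4-parameter logistic IC50.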

[1] = system: IFNγ stimulated STAT1 phosphorylation on Tyr701 (JAK1/2); experiment: JAK1/2 cellular target modulation: IFNγ stimulated phospho-STAT1 in PBMC; type: cell-based; conditions: Homo sapiens, PBMC, IFNγ 10 ng/ml, 1 hour compound preincubation, read-out: Infγ-STAT1 IC50
Method in brief: (§1)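 Thawed human PBMC (200,000/well) in complete RPMI/10% FBS preincubated with compound 1 h at 37 °C, then stimulated with IL-2 25 ng/ml for 5 min (pSTAT5 Tyr694) or IFNγ 10 ng/ml for 10 min (pSTAT1 Tyr701). Cells lysed; pSTAT5 by MSD Tyr694/total STAT5a,b assay, pSTAT1 by sandwich ELISA.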

JAK1 = JAK1 (Homo sapiens (Human), UniProt P23458); experiment: JAK1 enzyme activity assay (Thermo Fisher SelectScreen Z-lyte); type: biochemical; conditions: 1 hour kinase reaction, read-out: JAK1 Inhibition IC50
JAK1, sequence (P23458 whole entry): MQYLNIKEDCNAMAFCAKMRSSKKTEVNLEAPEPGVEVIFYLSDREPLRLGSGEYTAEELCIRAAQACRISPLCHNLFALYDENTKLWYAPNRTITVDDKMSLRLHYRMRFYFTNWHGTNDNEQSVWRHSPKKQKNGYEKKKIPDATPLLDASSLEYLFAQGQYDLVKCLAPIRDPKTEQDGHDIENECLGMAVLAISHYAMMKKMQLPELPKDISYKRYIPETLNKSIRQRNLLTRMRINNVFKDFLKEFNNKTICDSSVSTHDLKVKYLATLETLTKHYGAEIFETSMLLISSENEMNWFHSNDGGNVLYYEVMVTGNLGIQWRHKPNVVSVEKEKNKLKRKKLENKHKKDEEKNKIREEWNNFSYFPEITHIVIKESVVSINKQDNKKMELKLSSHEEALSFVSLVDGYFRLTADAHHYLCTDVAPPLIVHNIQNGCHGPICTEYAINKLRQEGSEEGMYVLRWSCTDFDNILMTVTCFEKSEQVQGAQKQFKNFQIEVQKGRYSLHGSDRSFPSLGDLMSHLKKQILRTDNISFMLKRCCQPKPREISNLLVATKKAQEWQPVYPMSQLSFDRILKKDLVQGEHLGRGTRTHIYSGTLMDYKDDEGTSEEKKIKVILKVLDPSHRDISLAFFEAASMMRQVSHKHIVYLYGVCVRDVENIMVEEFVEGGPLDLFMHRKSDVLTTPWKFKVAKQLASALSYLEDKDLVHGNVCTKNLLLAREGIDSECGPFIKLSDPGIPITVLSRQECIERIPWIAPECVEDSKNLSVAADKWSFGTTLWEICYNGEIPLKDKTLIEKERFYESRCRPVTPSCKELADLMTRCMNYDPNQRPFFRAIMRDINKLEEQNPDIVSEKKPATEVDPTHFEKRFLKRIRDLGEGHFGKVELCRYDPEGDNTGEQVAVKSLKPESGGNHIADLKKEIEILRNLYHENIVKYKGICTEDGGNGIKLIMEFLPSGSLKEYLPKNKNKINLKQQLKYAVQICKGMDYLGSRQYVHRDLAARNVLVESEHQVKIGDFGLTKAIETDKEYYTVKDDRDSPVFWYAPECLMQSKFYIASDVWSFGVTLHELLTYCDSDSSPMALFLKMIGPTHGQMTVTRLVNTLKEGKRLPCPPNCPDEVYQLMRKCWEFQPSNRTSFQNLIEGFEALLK
Method in brief: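 Z-lyte FRET assay with 21.2-91.5 ng JAK1 and 2 μM Tyr 06 peptide in 50 mM HEPES pH 7.0 with 10 mM MgCl2, reacted 1 hour before development reagent. Compounds tested in an 11-point dose-response from […] to 0.34 nM. IC50 from 4-parameter logistic fit of emission ratio.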

[2] = system: IL-2 stimulated STAT5 phosphorylation on Tyr694 (JAK1/3); experiment: JAK1/3 cellular target modulation: IL-2 stimulated phospho-STAT5 in PBMC; type: cell-based; conditions: Homo sapiens, PBMC, IL-2 25 ng/ml, 1 hour compound preincubation, read-out: IL2-STAT5 Inhibition IC50
Method in brief: as §1

JAK3 (a.a. 781-1124), sequence (P52333 781-1124): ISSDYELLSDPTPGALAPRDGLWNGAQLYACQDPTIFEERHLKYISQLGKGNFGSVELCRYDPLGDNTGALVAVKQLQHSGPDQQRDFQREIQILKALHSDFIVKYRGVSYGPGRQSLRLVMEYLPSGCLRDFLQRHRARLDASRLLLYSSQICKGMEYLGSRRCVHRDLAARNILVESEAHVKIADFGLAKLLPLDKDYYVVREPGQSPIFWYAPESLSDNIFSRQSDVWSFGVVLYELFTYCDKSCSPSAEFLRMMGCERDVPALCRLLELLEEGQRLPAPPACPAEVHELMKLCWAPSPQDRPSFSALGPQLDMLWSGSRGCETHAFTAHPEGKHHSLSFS

COC(=O)c1cnc2[nH]ccc2c1N[C@@H]1CCC[C@H](CCC#N)C1 (racemic) [Example 152, cis-racemic-methyl 4-((3-(2-cyanoethyl)cyclohexyl)amino)-1H-pyrrolo[2,3-b]pyridine-5-carboxylate]
IC50 (JAK3 (a.a. 781-1124)): ≤ 0.01 µM
IC50 [1]: 0.1 to 1 µM
IC50 (JAK1): ≤ 0.01 µM
IC50 [2]: ≤ 0.1 µM

CCOC(=O)c1cnc2[nH]ccc2c1NC1CCCC(O)C1 (centres unmarked) [Example 141, ethyl 4-((3-hydroxycyclohexyl)amino)-1H-pyrrolo[2,3-b]pyridine-5-carboxylate]
IC50 (JAK3 (a.a. 781-1124)): 0.01 to 0.1 µM
IC50 [1]: > 1 µM
IC50 (JAK1): 0.01 to 0.1 µM
IC50 [2]: 0.1 to 1 µM
